The target of one experiment is T1, mouse complex I (Mus musculus, UniProt P03888+Q91WD5+Q9DC70).
T1 construct: from tissue; host or cells: mouse (C57BL/6) heart mitochondria
The experiment can be described thus: Extent of inhibition of isolated IACS-2858-bound mouse complex I prepared for cryo-EM. The class given is biochemical. The note with it: isolated inhibitor-bound enzyme after size exclusion, initial rate versus control without inhibitor; cryo-EM sample. The procedure:
Complex I inhibited by IACS-2858 was prepared by a method adapted from that of Bridges et al. ([23]) for preparing mouse complex I inhibited by piericidin A1. C57BL/6 mice were euthanized by cervical dislocation in accord with the UK Animals (Scientific Procedures) Act 1986 (PPL: P6C97520A, approved by the local ethics committee and the UK Home Office), and mitochondrial membranes were prepared from heart tissue as described previously ([20]). Starting from membranes containing ~40 mg of total protein, the proteins were solubilized from the membranes by addition of 1% DDM (Glycon), and the mixture was centrifuged. […] The level of inhibition achieved was determined by comparing the initial rates of catalysis by the control and inhibited samples in buffer containing 20 mM tris-HCl (pH 7.5 at 32°C), 0.15% soy bean asolectin (Avanti Polar Lipids), and 0.15% CHAPS (Merck Chemicals Ltd.), using 200 μM dQ, with catalysis initiated by 200 μM NADH and monitored at 340 to 380 nm (ε = 4.81 mM^−1 cm^−1). […] The concentration of the peak fraction for the inhibited protein, eluting at ~1.65 ml, was estimated using a NanoDrop ultraviolet-visible spectrophotometer [ε280 = 0.2 (mg ml^−1)^−1], and the level of inhibition of the final eluted IACS-2858–treated sample was determined as above. […]
(In gel filtration, larger molecules generally elute earlier.)

In the next experiment the target is T2, complex I in bovine SMPs (Bos taurus, UniProt P03887+P17694+P42026).
T2 construct: Complex I from bovine heart were prepared; from tissue; host or cells: bovine heart mitochondria
In words: Reverse electron transport (succinate oxidation-driven NAD+ reduction) in bovine heart submitochondrial particles. The class given is biochemical. On the procedure:
All catalytic activity assays were conducted at 32°C in 96-well plates using a Molecular Devices Spectramax 384 plus plate reader. Catalysis was initiated by addition of 200 μM NADH and monitored at 340 and 380 nm (ε340–380 = 4.81 mM^−1 cm^−1). Linear rates were measured for all assays, inhibitors were added from dimethyl sulfoxide stock solutions as required, and inhibitor-insensitive rates (using either 1 μM piericidin A or 1.4 μM IACS-2858) were subtracted from each measured rate. Membrane samples were prepared as described previously ([17], [20], [59], [60]), diluted to 20 μg ml^−1 in 10 mM tris-SO4 (pH 7.5) and 250 mM sucrose, and supplemented with 3 μM horse heart cytochrome c (except for P. denitrificans, for which the activity is unaffected by the addition). Mouse, bovine, and yeast (Y. lipolytica) complex I were purified as described previously ([17], [20], [59]); diluted to 0.5 nM in 20 mM tris-HCl (pH 7.5), 0.15% asolectin, and 0.15% CHAPS; and assayed using either 200 μM dQ or 200 μM ubiquinone-1 (Sigma-Aldrich). Complex I was purified from P. denitrificans strain Pd1222 ([61]) and provided by O. D. Jarman (MRC Mitochondrial Biology Unit, University of Cambridge); it was assayed likewise but in 10 mM MES-HCl (pH 6.5), 25 mM NaCl, and 2 mM CaCl2. Bovine SMPs were prepared as described previously ([61]) and diluted to 20 μg ml^−1 in 10 mM tris-SO4 (pH 7.5) and 250 mM sucrose for FET and RET assays. The RET assay was initiated using 1 mM NAD^+, 1 mM ATP, 10 mM succinate, 1 mM cyanide, and 2 mM MgSO4, in the absence of NADH. AOX from Trypanosoma brucei brucei was prepared as described previously ([23]). Complex I proteoliposomes were assayed using 10 mM Mops-KOH (pH 7.5), 50 mM KCl, and AOX (10 μg ml^−1).

SMILES strings stand for the structures. “And” between values parts separate entries of the source, which are not always exact repeats. Identical values can stand only once.

In general, IC50 refers to the concentration at which inhibition is half-maximal.

For `CS(=O)(=O)C1CCN(c2cccc(Cn3cc(-c4nc(-c5ccc(OC(F)(F)F)cc5)no4)ccc3=O)c2)CC1` [IACS-2858, 1-(3-(4-(Methylsulfonyl)piperidin-1-yl)benzyl)-5-(3-(4-(trifluoromethoxy)phenyl)-1,2,4-oxadiazol-5-yl)pyridin-2(1H)-one], the extent of inhibition at mouse complex I is 81 ± 5% and 81.3 ± 4.7%. For the same compound, the IC50 against complex I in bovine SMPs (bovine SMPs, succinate oxidation-driven NAD+ reduction rate, ± SE) is 3.1 ± 0.1 nM. In addition, on complex I in bovine SMPs (bovine heart SMPs, RET versus FET), the “inhibition of RET favoured over FET” value was greater than 2 fold.

The values are drawn from PMC8121435, “Cork-in-bottle mechanism of inhibitor binding to mammalian complex I” (Science Advances, 2021).
